Measurements as given in patent EP0462071B1, “Pharmaceutical resorption-improved somatostatin compositions, their preparation and use” (SANDOZ LTD., priority 1990, dated 1991).
Where two headings read alike, the source gives them in different places.

Test: Resorption of octreotide after injection of a solution into the jejunum of anaesthetised rats; plasma concentration by radio-immunoassay
Type: in vivo, Wistar rats
Conditions: for AUC(0-t): area under the curve over 2 hours
Method: Wistar rats (about 300 g body weight) were fasted for 12 hours and anaesthetised with urethane (2 doses of […] i.p.). The abdomen was opened to gain access to the gastrointestinal tract in particular the jejunum. A solution of the pharmaceutical composition according to the invention or of the somatostatin as a control or of a somatostatin in combination with sodium taurocholate, a resorption enhancer, known to be used in combination with e.g. salmon calcitonin or insulin for an improved resorption through the mucous membrane of the gastrointestinal tract, was injected into the gastrointestinal tract, e.g. the jejunum. Blood samples (e.g. 1 ml) are obtained 20 minutes, and 1 and 2 hours after administration from the vena cava. The blood is centrifuged and the somatostatin concentration in the plasma determined in conventional manner using a radio-immunoassay method.
The relative bioavailability (AUCo² = Area under the curve over 2 hours) is determined and expressed in the following table, in which the AUC is expressed as ng/ml.hour and Cmax as ng/ml: TABLE A

## C[C@@H](O)[C@@H]1NC(=O)[C@H](CCCCN)NC(=O)[C@@H](Cc2c[nH]c3ccccc23)NC(=O)[C@H](Cc2ccccc2)NC(=O)[C@@H](NC(=O)[C@H](N)Cc2ccccc2)CSSC[C@@H](C(=O)N[C@H](CO)[C@@H](C)O)NC1=O [100 microg. of octreotide (reference), Octreotide]
Wistar, rat, 100 microg., octreotide in plasma, 0.5 ml of NaCl (0.9 % W/V) solution injected into the jejunum, sem in the next column
  Cmax: 2.23 ng/mL
Wistar, rat, 100 microg., octreotide in plasma, 0.5 ml of NaCl (0.9 % W/V) solution injected into the jejunum, blood samples at 20 minutes, 1 and 2 hours, read-out: AUCo² median
  AUC(0-t): 2.06 ng·h/mL
Wistar, rat, plasma, 100 microg., octreotide in plasma, 0.5 ml of NaCl (0.9 % W/V) solution injected into the jejunum, sem in the next column, read-out: AUCo² mean
  AUC(0-t): 2.26 ng·h/mL
Relative to 100 microg. of octreotide alone (reference = 100 %), values correspond to the ratio of the median AUCo²
  Bioavail. rel. %: 100%
